Experimental data published in a compilation of properties of binary mixtures (doi:10.1016/j.fluid.2019.112304).

Assay: xn = mol fraction of the nth substance listed
Settings: 101 kPa

CCCCCCCCCCCC[N+](C)(C)Cc1ccccc1.O=S(=O)([N-]S(=O)(=O)C(F)(F)F)C(F)(F)F + CCCCO
viscosity [mPa·s]
Settings	x1 = 0.1507	x1 = 0.3015	x1 = 0.4494	x1 = 0.594	x1 = 0.7485	x1 = 0.9164	x1 = 1
298.15 K	15.3	43.6	103	208	505	1066	–
303.15 K	12.4	–	78	153	362	748	970
308.15 K	10.4	–	60.1	115	266	532	–
313.15 K	8.75	22	47.2	86.1	–	386	485
318.15 K	–	18.1	–	69.1	150	285	351
323.15 K	6.4	14.9	30.4	57.2	117	210	261
328.15 K	5.54	12.5	24.9	46.8	91.6	–	197
333.15 K	–	10.5	–	–	76.8	125	152
338.15 K	4.24	8.87	17.2	33.8	–	99	–
343.15 K	3.75	7.58	14.6	29	–	79.2	91.8
348.15 K	3.43	6.53	12.2	–	46.3	68	77.5

CCCCO + CCCCCCCCCCCC[N+](C)(C)Cc1ccccc1.O=S(=O)([N-]S(=O)(=O)C(F)(F)F)C(F)(F)F
x2 = 0
Settings	viscosity [mPa·s]
303.15 K	2.23
318.15 K	1.56
323.15 K	1.42
328.15 K	1.27
333.15 K	1.11
338.15 K	1.01

c1ccsc1 + N#C[C-](C#N)C#N.OCC[n+]1ccccc1
x2 = 0
Settings	viscosity [mPa·s]
293.15 K	0.653
298.15 K	0.615
308.15 K	0.545
313.15 K	0.518
318.15 K	0.491
323.15 K	0.464
328.15 K	0.441
338.15 K	0.4
343.15 K	0.382

N#C[C-](C#N)C#N.OCC[n+]1ccccc1 + c1ccsc1
viscosity [mPa·s]
Settings	x1 = 0.4042	x1 = 0.4996	x1 = 0.6	x1 = 0.7041	x1 = 0.8044	x1 = 0.901	x1 = 1
293.15 K	19.9	29.5	40.2	–	67	91.2	–
298.15 K	16.3	23.6	31.8	41.2	51.6	–	97
303.15 K	13.6	–	25.5	32.7	40.1	–	71.8
308.15 K	11.5	15.8	20.7	26.1	31.6	39.6	54.6
313.15 K	10	13.4	17.2	21.2	25.6	31.6	42.3
318.15 K	8.78	11.4	14.4	17.7	–	25.7	34
323.15 K	7.81	9.87	–	14.8	17.6	21.3	27.8
328.15 K	7.01	8.67	10.6	–	14.8	–	22.9
333.15 K	6.15	–	–	10.9	12.8	15.2	19.3
338.15 K	–	–	7.86	–	11.1	13.1	16.4
343.15 K	4.68	–	6.99	8.4	–	11.5	14
348.15 K	4.17	5.12	6.2	7.5	8.89	10.3	12.3
